Experimental data from US12162861B2, “Dopamine D3 receptor selective antagonists/partial agonists; method of making; and use thereof” (THE UNITED STATES OF AMERICA, AS REPRESENTED BY THE …, priority 2016, dated 2024).
“Also recorded” adds a separate entry of the source.

How the values were obtained:
human D3R = molecular target: T1, human D3R (Homo sapiens, UniProt P35462); assay: Radioligand competition binding, [3H]N-methylspiperone, D3R; settings: Table 1A; HEK 293 cells transfected with hD3R, [3H]N-methylspiperone; read-out: D3R K ± SEM
T1 construct: expressed in transfected cells; host or cells: HEK293
T1 sequence (P35462 whole entry): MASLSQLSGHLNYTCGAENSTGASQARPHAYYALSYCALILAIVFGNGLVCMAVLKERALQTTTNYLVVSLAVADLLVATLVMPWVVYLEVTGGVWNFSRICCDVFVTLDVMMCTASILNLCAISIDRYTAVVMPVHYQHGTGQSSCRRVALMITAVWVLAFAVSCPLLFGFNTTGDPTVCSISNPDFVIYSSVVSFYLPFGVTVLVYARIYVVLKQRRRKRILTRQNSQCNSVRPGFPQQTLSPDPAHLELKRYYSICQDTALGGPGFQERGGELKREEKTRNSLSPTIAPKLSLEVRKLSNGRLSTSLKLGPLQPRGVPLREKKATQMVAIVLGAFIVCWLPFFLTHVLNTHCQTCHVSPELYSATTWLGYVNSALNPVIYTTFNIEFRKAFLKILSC
Description: Binding at dopamine D2-like receptors was determined using previously described methods. […] Upon reaching 80-90% confluence, cells were harvested using pre-mixed Earle's Balanced Salt Solution (EBSS) with 5 μM EDTA (Life Technologies) and centrifuged at 3000 rpm for 10 min at 21° C. The supernatant was removed and the pellet was resuspended in 10 mL hypotonic lysis buffer (5 mM MgCl2·6H2O, 5 mM Tris, pH 7.4 at 4° C.) and centrifuged at 20,000 rpm for 30 min at 4° C. The pellet was then resuspended in fresh EBSS buffer made from 8.7 g/L Earle's Balanced Salts without phenol red (US Biological, Salem, MA), 2.2 g/L sodium bicarbonate, pH to 7.4. A Bradford protein assay (Bio-Rad, Hercules, CA) was used to determine the protein concentration and membranes were diluted to 500 μg/mL and stored in a −80° C. freezer for later use.
Radioligand competition binding experiments were conducted using thawed membranes. Test compounds were freshly dissolved in 30% DMSO and 70% H2O to a stock concentration of 100 μM. To assist the solubilization of free-base compounds, 10 μl of glacial acetic acid was added along with the DMSO. Each test compound was then diluted into 13 half-log serial dilutions using 30% DMSO vehicle; final test concentrations ranged from 10 μM to 10 pM. Previously frozen membranes were diluted in fresh EBSS to a 100 μg/mL (for hD2R or hD3R) or 200 μg/mL (hD4R) stock for binding. Radioligand competition experiments were conducted in glass tubes containing 300 μl fresh EBSS buffer with 0.2 mM sodium metabisulfite, 50 μl of diluted test compound, 100 μl of membranes (10 μg total protein for hD2R or hD3R, 20 μg total protein for hD4R), and 50 μl of [^3H]N-methylspiperone (0.4 nM final concentration; Perkin Elmer). Nonspecific binding was determined using 10 μM butaclamol (Sigma-Aldrich, St. Louis, MO) and total binding was determined with 30% DMSO vehicle. All compound dilutions were tested in triplicate and the reaction incubated for one hour at room temperature. The reaction was terminated by filtration through Whatman GF/B filters, presoaked for one hour in 0.5% polyethylenimine, using a Brandel R48 filtering manifold (Brandel Instruments, Gaithersburg, MD). The filters were washed 3 times with 3 mL of ice cold EBSS buffer and transferred to scintillation vials. […] IC50 values for each compound were determined from dose-response curves and Ki values were calculated using the Cheng-Prusoff equation; these analyses were performed using GraphPad Prism version 5.00 for Windows (GraphPad Software, San Diego, CA). Reported Ki values were determined from least three independent experiments.

[1] = Phase I metabolic stability in rat liver microsomes; type: in vitro ADME; settings: FIG. 2; 10 μM, 0.5 mg/mL microsomes
Description: Methods: Phase I metabolic stability assay was conducted in rat and rhesus monkey liver microsomes. For phase I metabolism, the reaction was carried out with 100 mM potassium phosphate buffer, pH 7.4, in the presence of NADPH regenerating system (1.3 mM NADPH, 3.3 mM glucose 6-phosphate, 3.3 mM MgCl2, 0.4 U/mL glucose-6-phosphate dehydrogenase, 50 μM sodium citrate). Reactions in triplicate were initiated by addition of the liver microsomes to the incubation mixture (compound final concentration was 10 μM; 0.5 mg/mL microsomes). Negative controls in the absence of cofactors were carried out to determine the specific cofactor-free degradation. Compound disappearance was monitored via LC/MS/MS. Chromatographic analysis was performed using an Accela™ ultra high-performance system consisting of an analytical pump, and an autosampler coupled with TSQ Vantage mass spectrometer (Thermo Fisher Scientific Inc., Waltham MA). […] The mobile phase used was composed of 0.1% Formic Acid in Acetonitrile and 0.1% Formic Acid in H2O with gradient elution, starting with 10% (organic) linearly increasing to 99% up to 2 min, maintaining at 99% (2-2.5 min) and re-equilibrating to 10% by 2.7 min. The total run time for each analyte was 5.0 min.

[2] = Mouse microsomal stability assay; type: in vitro ADME; settings: mouse liver microsomes, Phase I, 10 μM compound, 0.5 mg/mL microsomes
Description: Mouse Microsomal Stability Assay. […] The reaction was carried out with 100 mM potassium phosphate buffer, pH 7.4, in the presence of NADPH regenerating system, (compound final concentration was 10 μM; 0.5 mg/mL microsomes). Positive controls for phase I metabolism (testosterone) were also evaluated. Compound disappearance was monitored over time using a liquid chromatography and tandem mass spectrometry (LC/MS/MS) method. All reactions were sampled in triplicate. Chromatographic analysis was performed using an Accela ultra high-performance system consisting of an analytical pump and an autosampler coupled with a TSQ Vantage mass spectrometer (Thermo Fisher Scientific Inc., Waltham, MA). […] The mobile phase used was composed of 0.1% formic acid in acetonitrile and 0.1% formic acid in H2O with gradient elution, starting with 10% (organic) linearly increasing to 99% up to 2 min, maintaining at 99% (2-2.5 min) and reequilibrating to 10% by 2.7 min. The total run time for each analyte was 4.5 min.

human dopamine D3R = molecular target: T2, human dopamine D3R (Homo sapiens, UniProt P35462); assay: D3R mitogenesis assay in CHO cells; type: cell-based; settings: stimulation of mitogenesis, CHO cells with human D3R; read-out: Agonist EC50 ± SEM
T2 construct: expressed in transfected cells; host or cells: CHO
T2 sequence (P35462 whole entry): as above

opiate mu receptor = opiate mu receptor (Homo sapiens, UniProt P35372); assay: Binding to opiate mu receptor
Sequence of opiate mu receptor (P35372 whole entry): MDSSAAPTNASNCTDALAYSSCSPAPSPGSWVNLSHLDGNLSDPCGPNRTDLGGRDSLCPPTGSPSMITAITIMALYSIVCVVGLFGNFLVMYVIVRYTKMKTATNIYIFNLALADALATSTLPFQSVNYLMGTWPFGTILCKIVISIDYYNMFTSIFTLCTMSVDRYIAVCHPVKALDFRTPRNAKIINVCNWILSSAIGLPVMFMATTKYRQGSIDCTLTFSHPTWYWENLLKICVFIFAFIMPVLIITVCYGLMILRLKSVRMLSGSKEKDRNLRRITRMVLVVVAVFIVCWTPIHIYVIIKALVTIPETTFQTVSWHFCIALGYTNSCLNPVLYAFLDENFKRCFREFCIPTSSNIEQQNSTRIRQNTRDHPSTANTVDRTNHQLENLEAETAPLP

squirrel monkeys = assay: Cue-induced reinstatement of drug seeking in squirrel monkeys; type: in vivo, squirrel monkey (Saimiri sciureus)
Text: Cue-induced reinstatement: After the completion of priming-induced reinstatement testing, the monkeys were returned to baseline THC self-administration for 5-10 sessions. In subsequent extinction sessions, drug injections and all cues associated with drug injections were removed. This means that catheters were not connected to a pump and monkeys were not receiving infusions or visual cue presentations. After two or three days of extinction, we tested for cue-induced reinstatement of extinguished drug-seeking behavior after vehicle pretreatment (i.m.) by allowing delivery of a saline injection paired with the drug-associated cues. […] Each reinstatement test was a single session, which was preceded and followed by extinction session(s) with vehicle pretreatment (i.m.) 30 min before the sessions.
Δ^9-tetrahydrocannabinol (THC, NIDA Drug Supply Program, Bethesda, MD, USA) was dissolved in a vehicle containing 1% Tween 80, 1% ethanol, and saline to obtain stock solution (0.4 mg/ml) and further diluted with saline. In the reinstatement tests, THC was injected i.v. (1 ml/kg) immediately before the session.

Ki (human D3R): 6.29 nM
% remaining over 1 h [2]: > 80%
EC50 (human dopamine D3R): > 8300 nM
binding to opiate mu receptor (opiate mu receptor): does not bind
SMILES: CCc1cc(Cl)c(OC)c(N2CCN(CC(O)CCNC(=O)c3cc4ccccc4[nH]3)CC2)c1 (racemic) [Compound 29, N-(4-(4-(3-chloro-5-ethyl-2-methoxyphenyl)piperazin-1-yl)-3-hydroxybutyl)-1H-indole-2-carboxamide]
metabolic stability in rat liver microsomes versus PG648 [1]: improved metabolic stability as compared to Compound 1; also recorded: significantly more stable than PG648
cue-induced reinstatement of drug seeking behavior (squirrel monkeys): attenuated cue-induced reinstatement of drug seeking behavior
